In series [1] the test system is aconitine-induced ventricular arrhythmias in anaesthetised rats. Briefly: animal or person. Type of series: in vivo, Male Wistar rats. Particulars: for % decrease in DBP: resting diastolic blood pressure; for amount of aconitine required to elicit ventricular arrhythmia (in words): pretreatment i.v., versus control animals. As for the experimental part: Male Wistar rats weighing 200-300 g were used. Anaesthesia was induced with a halothane:air mixture and maintained by intravenous administration of a chloralose/pentobarbitone sodium mixture (3 mg/ml pentobarbitone sodium+9.5 mg/ml chloralose) after insertion of a femoral vein cannula. A tracheal cannula was inserted and the animal was respired via a Palmer small animal respiration pump (72 strokes/min and approx 1 ml/100 g). Rectal temperature was thermostatically maintained at 37° C. throughout the experiment. Cannulae were placed in a jugular vein for administration of aconitine and a carotid artery for continuous measurement of blood pressure. Subdermal needle electrodes were inserted for the recording of electrocardiograms throughout the experiment.
When the blood pressure of the animal had stabilised for 10-15 minutes, aconitine (dissolved in distilled water+HCl and diluted in 5% dextrose) was infused via the jugular vein cannula at a rate of 1 μg/min (0.03 mls/min). The total dose of aconitine required to produce ventricular tachycardia or ventricular fibrillation (VT/VF) of at least 1 sec duration was taken as the endpoint of the assay.
Anti-arrhythmic activity was assessed by pretreating animals randomly with drug or vehicle 15 mins prior to aconitine infusion and comparing the dose of aconitine necessary to induce ventricular arrhythmias in treatment groups with that of control groups. The compounds in accordance with the invention were administered as the mesylate or hydrochloride salt prepared immediately before use in a 5% dextrose solution. All drugs were administered via a femoral venous cannula in a dose volume of 0.5 ml.

Series [2] concerns guinea-pig right ventricular muscle. Briefly: Guinea-pig right ventricular muscle preparation (Vmax of phase 0 of the action potential). It counts as cell-based, male guinea-pigs. As to conditions: Cavia porcellus; stimulated at 1 Hz; 0 to 3×10^-4 M in modified Tyrodes solution; read-out: EC50 (50% reduction in Vmax). The text has this: Guinea-pig right ventricular muscle preparation: (Campbell, Brit.J.Pharmac., 1982, 77, 541-548)
Strips of right ventricle excised from male guinea-pigs were electrically stimulated at a frequency of 1 Hz with punctate, bipolar silver wire electrodes.

Series [3] relates to beagle dogs. Briefly: Toxicity in dogs, daily administration for 14 days. As to conditions: two to three times the effective dose, daily for 14 days.
Series [4] can be described thus: Stability of the base. It counts as physicochemical. As to conditions: free base.
Where [5] appears, read: Rattus norvegicus, iv, 0.25 h, read-out: % increase in aconitine to elicit VT/VF.

For `C=C[C@H]1C[N@@]2CC[C@H]1C[C@@H]2[C@@H](O)c1ccnc2ccc(OC)cc12` [Quinidine, reference compound], in series [1] (setting [5]), the change in vivo at 10 mg/kg amounted to 8%. Also, the “% decrease in DBP” value in series [1] (dose 10 mg/kg (i.v.)) was 43%. Besides, in series [1], the “amount of aconitine required to elicit ventricular arrhythmia (in words)” value (“amount of aconitine required” below) was “increased the amount of aconitine required to elicit the same ventricular arrhythmia”.

Consider `CCCn1nc(-c2cccc(Cl)c2Cl)c(N)nc1=N` [Example 10, 5(3)-Amino-6-(2,3-dichlorophenyl)-2,3(2,5)-dihydro-3(5)-imino-2-n-propyl-1,2,4-triazine], for which, in series [1] (setting [5]), the change in vivo at 1 mg/kg was determined as 225%. Also, the “% decrease in DBP” value in series [1] (dose 1 mg/kg (i.v.)) was found to be 3%.

Take `COc1ccccc1-c1nn(C)c(=N)nc1N` [Example 8, 5(3)-Amino-6-(2-methoxyphenyl)-2,3(2,5)-dihydro-3(5)-imino-2-methyl-1,2,4-triazine]: the change in vivo at 10 mg/kg in series [1] (setting [5]) turned out to be 51%. Also, the “% decrease in DBP” value in series [1] (dose 10 mg/kg (i.v.)) came out at 8%.

Take `Cn1nc(-c2c(F)cccc2Cl)c(N)nc1=N` [Example 6, 5(3)-Amino-6-(2-chloro-6-fluorophenyl)-2,3(2,5)-dihydro-3(5)-imino-2-methyl-1,2,4-triazine]: the change in vivo at 5 mg/kg in series [1] (setting [5]) was 149%. Also, the “% decrease in DBP” value in series [1] (dose 5 mg/kg (i.v.)) was 1%.

With `CCCCCOc1ccccc1-c1nn(C)c(=N)nc1N` [Example 3, 5(3)-Amino-6-(2-n-pentyloxyphenyl)-2,3(2,5)-dihydro-3(5)-imino-2-methyl-1,2,4-triazine], in series [2], the IC50 was found to be 5.9 µM. Further, in series [1] (setting [5]), the change in vivo at 1 mg/kg was 144%. Further, in series [1] (dose 1 mg/kg (i.v.)), the “% decrease in DBP” value is 8%.

As to `COc1ccc(CCN(C)CCCC(C#N)(c2ccc(OC)c(OC)c2)C(C)C)cc1OC` (centres unmarked) [Verapamil, reference compound], the change in vivo at 1 mg/kg in series [1] (setting [5]) stood at 84%. Also, the “% decrease in DBP” value in series [1] (dose 1 mg/kg (i.v.)) came to 68%. Further, in series [1], the “amount of aconitine required” value was “increased the amount of aconitine required to elicit the same ventricular arrhythmia”.

Consider `CCN(CC)CC(=O)Nc1c(C)cccc1C` [Lidocaine, reference compound], for which the change in vivo at 10 mg/kg in series [1] (setting [5]) worked out at 44%. Further, in series [1] (dose 10 mg/kg (i.v.)), the “% decrease in DBP” value is listed as 1%. For the same molecule, in series [1], the “amount of aconitine required” value is listed as “increased the amount of aconitine required to elicit the same ventricular arrhythmia”.

As for `Cn1nc(-c2ccccc2Cl)c(N)nc1=N` [Example 9, 5(3)-Amino-6-(2-chlorophenyl)-2,3(2,5)-dihydro-3(5)-imino-2-methyl-1,2,4-triazine], in series [1] (setting [5]), the change in vivo at 1 mg/kg came to 32%. Also, the “% decrease in DBP” value in series [1] (dose 1 mg/kg (i.v.)) is recorded as 4%.

For `O=C1NC(=O)C(c2ccccc2)(c2ccccc2)N1` [Phenytoin, reference compound], the change in vivo at 10 mg/kg in series [1] (setting [5]) was found to be 19%. Besides, the “% decrease in DBP” value in series [1] (dose 10 mg/kg (i.v.)) is given as 4%. In addition, the “amount of aconitine required” value in series [1] was “increased the amount of aconitine required to elicit the same ventricular arrhythmia”.

With `CCCCCCCOc1ccccc1-c1nn(C)c(=N)nc1N` [Example 17, 5(3)-Amino-6-(2-n-heptyloxyphenyl)-2,3(2,5)-dihydro-3(5)-imino-2-methyl-1,2,4-triazine], the change in vivo at 1 mg/kg in series [1] (setting [5]) is 154%. Also, in series [1] (dose 1 mg/kg (i.v.)), the “% decrease in DBP” value was found to be 3%.

In the case of `CCCc1ccccc1-c1nn(C)c(=N)nc1N` [Example 15, 5(3)-Amino-6-(2-n-propylphenyl)-2,3(2,5)-dihydro-3(5)-imino-2-methyl-1,2,4-triazine], in series [1] (setting [5]), the change in vivo at 1 mg/kg was 12%. Further, in series [1] (dose 1 mg/kg (i.v.)), the “% decrease in DBP” value was determined as 5%.

Regarding `Cn1nc(-c2cc(Cl)ccc2Cl)c(N)nc1=N` [Example 2, 5(3)-Amino-6-(2,5-dichlorophenyl)-2,3(2,5)-dihydro-3(5)-imino-2-methyl-1,2,4-triazine], the change in vivo at 5 mg/kg in series [1] (setting [5]) stood at 440%. Also, the “% decrease in DBP” value in series [1] (dose 5 mg/kg (i.v.)) was determined as 10%.

With `N=c1nc(N)c(-c2cccc(Cl)c2Cl)nn1Cc1ccccc1` [Example 12, 5(3)-Amino-6-(2,3-dichlorophenyl)-2,3(2,5)-dihydro-3(5)-imino-2-benzyl-1,2,4-triazine], in series [1] (setting [5]), the change in vivo at 1 mg/kg is 14%. The “% decrease in DBP” value in series [1] (dose 1 mg/kg (i.v.)) was determined as 5%.

With `CC(C)n1nc(-c2cccc(Cl)c2Cl)c(N)nc1=N` [Example 4, 5(3)-Amino-6-(2,3-dichlorophenyl)-2,3(2,5)-dihydro-3(5)-imino-2-isopropyl-1,2,4-triazine], the IC50 in series [2] is 2.2 µM. The “toxicity (in words)” value in series [3] is recorded as “No marked toxicity was observed”. The change in vivo at 1 mg/kg in series [1] (setting [5]) is 490%. Further, the “% decrease in DBP” value in series [1] (dose 1 mg/kg (i.v.)) is 13%.

Consider `Cn1nc(-c2ccccc2)c(N)nc1=N` [Example 5, 5(3)-Amino-6-phenyl-2,3(2,5)-dihydro-3(5)-imino-2-methyl-1,2,4-triazine], for which the change in vivo at 5 mg/kg in series [1] (setting [5]) was 30%. Further, the “% decrease in DBP” value in series [1] (dose 5 mg/kg (i.v.)) is 5%.

As to `CC(C)NCC(O)COc1cccc2ccccc12` (centres unmarked) [Propranolol, reference compound], the change in vivo at 1 mg/kg in series [1] (setting [5]) came to 51%. Further, in series [1] (dose 1 mg/kg (i.v.)), the “% decrease in DBP” value was found to be 0%. The “amount of aconitine required” value in series [1] is “increased the amount of aconitine required to elicit the same ventricular arrhythmia”.

In the case of `CCCCCn1nc(-c2cccc(Cl)c2Cl)c(N)nc1=N` [Example 18, 5(3)-Amino-6-(2,3-dichlorophenyl)-2,3(2,5)-dihydro-3(5)-imino-2-n-pentyl-1,2,4-triazine], the change in vivo at 1 mg/kg in series [1] (setting [5]) was determined as 46%. For the same molecule, the “% decrease in DBP” value in series [1] (dose 1 mg/kg (i.v.)) is given as 1%. In addition, the “stability of the base (in words)” value in series [4] is “unstable”.

As for `CCN(CC)CCNC(=O)c1ccc(N)cc1` [Procainamide, reference compound], the change in vivo at 20 mg/kg in series [1] (setting [5]) was determined as 11%. Also, the “% decrease in DBP” value in series [1] (dose 20 mg/kg (i.v.)) is 22%. Further, in series [1], the “amount of aconitine required” value is listed as “increased the amount of aconitine required to elicit the same ventricular arrhythmia”.

In the case of `Cn1nc(-c2ccccc2I)c(N)nc1=N` [Example 7, 5(3)-Amino-6-(2-iodophenyl)-2,3(2,5)-dihydro-3(5)-imino-2-methyl-1,2,4-triazine], the change in vivo at 5 mg/kg in series [1] (setting [5]) was found to be 106%. Further, the “% decrease in DBP” value in series [1] (dose 5 mg/kg (i.v.)) is listed as 13%.

As for `CCCOc1ccccc1-c1nn(C)c(=N)nc1N` [Example 16, 5(3)-Amino-6-(2-n-propyloxyphenyl)-2,3(2,5)-dihydro-3(5)-imino-2-methyl-1,2,4-triazine], the change in vivo at 1 mg/kg in series [1] (setting [5]) came out at 15%. Also, the “% decrease in DBP” value in series [1] (dose 1 mg/kg (i.v.)) is 3%.

`Cn1nc(-c2cccc(Cl)c2Cl)c(N)nc1=N` [Example 1, 5(3)-Amino-6-(2,3-dichlorophenyl)-2,3(2,5)-dihydro-3(5)-imino-2-methyl-1,2,4-triazine]: in series [2], the IC50 is 130 µM. The change in vivo at 1 mg/kg in series [1] (setting [5]) stood at 29%. In series [1] (dose 1 mg/kg (i.v.)), the “% decrease in DBP” value was 11%.

As for `Cn1nc(-c2cc(Cl)cc(Cl)c2Cl)c(N)nc1=N` [Example 13, 5(3)-Amino-6-(2,3,5-trichlorophenyl)-2,3(2,5)-dihydro-3(5)-imino-2-methyl-1,2,4-triazine], in series [1] (setting [5]), the change in vivo at 1 mg/kg came to 246%. In addition, the “% decrease in DBP” value in series [1] (dose 1 mg/kg (i.v.)) was determined as 1%.

For the molecule `CCCCCOc1ccc(-c2nn(C)c(=N)nc2N)cc1` [Example 14, 5(3)-Amino-6-(4-n-pentyloxyphenyl)-2,3(2,5)-dihydro-3(5)-imino-2-methyl-1,2,4-triazine], the change in vivo at 1 mg/kg in series [1] (setting [5]) was 8%. Also, the “% decrease in DBP” value in series [1] (dose 1 mg/kg (i.v.)) is recorded as 2%.

As to `Cn1nc(-c2ccc(Cl)cc2Cl)c(N)nc1=N` [Example 11, 5(3)-Amino-6-(2,4-dichlorophenyl)-2,3(2,5)-dihydro-3(5)-imino-2-methyl-1,2,4-triazine], the change in vivo at 1 mg/kg in series [1] (setting [5]) is 33%. In addition, the “% decrease in DBP” value in series [1] (dose 1 mg/kg (i.v.)) came to 7%.
